Test results published in EP4707280A1, “1,4-CINEOLE DERIVATIVE AND INTERMEDIATE THEREOF, HERBICIDE CONTAINING SAID DERIVATIVE AS ACTIVE INGREDIENT, METHOD FOR USING HERBICIDE, AND METHOD FOR PREPARING AGROCHEMICAL COMPOSITION” (HOKKO CHEMICAL INDUSTRY CO., LTD., priority 2023, dated 2024).

Legend:
Type in all cases: in vivo
Echinochloa crus-galli [1] = assay: Test Example 3: herbicidal effect test by soil application in upland field; conditions: Echinochloa crus-galli, 120 g per 10 ares, sprayed one day after sowing, 14 days after application, read-out: weed inhibition rate
In short: (§1)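 Weed inhibition (%) was assessed 14 days after treatment, in duplicate per concentration group. Seeds had been mixed into the upper 1 cm of upland alluvial loam, and the soil surface was sprayed one day later with the diluted emulsifiable concentrate at 120 g active ingredient per 10 ares.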

Digitaria ciliaris [2] = assay: as above; conditions: Digitaria ciliaris, 120 g per 10 ares, sprayed one day after sowing, 14 days after application, read-out: weed inhibition rate
In short: as §1

Echinochloa crus-galli [3] = assay: Test Example 4: herbicidal effect test by stem and leaf treatment in upland field; conditions: Echinochloa crus-galli; 120 g per 10 ares; sprayed seven days after sowing, upland soil; 14 days after application; read-out: weed inhibition rate
[4] = system: Echinochloa crus-galli var. formosensis; assay: Test Example 2: herbicidal effect test by application during growth period of paddy rice; conditions: Echinochloa crus-galli; 120 g per 10 ares; applied seven days after sowing, flooded pots; 14 days after application; read-out: weed inhibition rate
In short: (§2)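 Paddy soil in Wagner pots was puddled with N:P:K 16:16:16 fertilizer, sown with 30 weed seeds per species at 0–1 cm and flooded to about 3 cm. Seven days after sowing, a water-diluted emulsifiable concentrate was dropped onto the water at 120 g active ingredient per 10 ares. Weed inhibition (%) was scored at 14 days, in duplicate.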

Scirpus juncoides [5] = assay: as above; conditions: Schoenoplectiella juncoides; 120 g per 10 ares; applied seven days after sowing, flooded pots; 14 days after application; read-out: weed inhibition rate
In short: as §2

[6] = system: Echinochloa crus-galli var. formosensis; assay: Test Example 6: herbicidal effect test by application during growth period of paddy rice (low dose); conditions: Echinochloa crus-galli; 7.5 g per 10 ares; applied seven days after sowing, flooded pots; 14 days after application; read-out: weed inhibition rate
In short: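 Puddled, fertilised paddy soil was sown with 30 seeds per species and flooded to about 3 cm. After 7 days in a glass greenhouse, the diluted emulsifiable concentrate went into the water by dropper at 7.5 g/10 a. Effect scored at 14 days.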

[7] = system: Echinochloa crus-galli var. formosensis; assay: Test Example 1: herbicidal effect test by soil application in paddy rice; conditions: Echinochloa crus-galli, soil, 336 h; 120 g active ingredient per 10 ares; applied immediately after sowing, flooded pots; 14 days after application; read-out: weed inhibition rate
In short: (§3)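 Pre-emergence paddy soil application, 120 g a.i./10 a, emulsifiable concentrate diluted in water, applied by dropper right after sowing. Seeds (30/species) sown 0–1 cm in puddled, fertilized soil; flooded ~3 cm; glass greenhouse.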

Scirpus juncoides [8] = assay: as above; conditions: Schoenoplectiella juncoides, soil, 336 h; 120 g active ingredient per 10 ares; applied immediately after sowing, flooded pots; 14 days after application; read-out: weed inhibition rate
In short: as §3

Echinochloa crus-galli [9] = assay: Test Example 8: herbicidal effect test by stem and leaf treatment in upland field (low dose); conditions: Echinochloa crus-galli; 7.5 g per 10 ares; sprayed seven days after sowing, upland soil; 14 days after application; read-out: weed inhibition rate
Digitaria ciliaris [10] = assay: as above; conditions: Digitaria ciliaris; 7.5 g per 10 ares; sprayed seven days after sowing, upland soil; 14 days after application; read-out: weed inhibition rate
Echinochloa crus-galli [11] = assay: Test Example 7: herbicidal effect test by soil application in upland field (low dose); conditions: Echinochloa crus-galli, 7.5 g per 10 ares, sprayed one day after sowing, 14 days after application, read-out: weed inhibition rate
Protocol: (§4) The present test was conducted in duplicate for each chemical concentration group, and the weed inhibition rate (%) was determined 14 days after chemical application using the following formula (Math. 1). [formula]
(§5) Pots with an area of 36 cm^2 were filled with upland soil (alluvial loam), twenty seeds each of weeds of Digitaria ciliaris, and Echinochloa crus-galli were uniformly mixed with the top 1 cm layer of soil and the surface was lightly pressed down. One day after sowing, an emulsifiable concentrate prepared according to Formulation Example 5 using the compound shown below was diluted with water, and the diluted solution was sprayed onto the soil surface at a rate of 100 liters per 10 ares. The amount of the active ingredient to be applied was equivalent to 7.5 g per 10 ares. Fourteen days after chemical application, the herbicidal effect was evaluated according to the same criteria as in Test Example 1.

Digitaria ciliaris [12] = assay: as above; conditions: Digitaria ciliaris, 7.5 g per 10 ares, sprayed one day after sowing, 14 days after application, read-out: weed inhibition rate
Protocol: as §4, §5

Digitaria ciliaris [13] = assay: Test Example 4: herbicidal effect test by stem and leaf treatment in upland field; conditions: Digitaria ciliaris; 120 g per 10 ares; sprayed seven days after sowing, upland soil; 14 days after application; read-out: weed inhibition rate
[14] = system: Echinochloa crus-galli var. formosensis; assay: Test Example 5: herbicidal effect test by soil application in paddy rice (low dose); conditions: Echinochloa crus-galli, soil, 336 h; 7.5 g per 10 ares; applied immediately after sowing, flooded pots; 14 days after application; read-out: weed inhibition rate
In short: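 Paddy soil in Wagner pots was fertilized (N:P:K 16:16:16), puddled, sown with 30 seeds per weed species at 0–1 cm, then flooded to ~3 cm in a glass greenhouse. Emulsifiable concentrate diluted in water was dropper-applied into floodwater immediately, at 7.5 g active ingredient per 10 ares; duplicates, scored at 14 days.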

CC(C)=CCO[C@@H]1C[C@]2(C(C)C)O[C@@]1(C)C[C@@H]2Cl [1-612, (1R,2S,4S,5R)-2-chloro-1-isopropyl-4-methyl-5-(3-methylbut-2-enoxy)-7-oxabicyclo[2.2.1]heptane]
≥ 80%: inhibition at 1200 g/ha (Echinochloa crus-galli [1]) | inhibition at 1200 g/ha (Digitaria ciliaris [2]) | inhibition at 1200 g/ha (Echinochloa crus-galli [3]) | inhibition at 1200 g/ha [4] | inhibition at 1200 g/ha (Scirpus juncoides [5]) | inhibition at 75 g/ha [6] | pest or weed control at 1200 g/ha [7] | pest or weed control at 1200 g/ha (Scirpus juncoides [8]) | inhibition at 75 g/ha (Echinochloa crus-galli [9]) | inhibition at 75 g/ha (Digitaria ciliaris [10]) | inhibition at 75 g/ha (Echinochloa crus-galli [11]) | inhibition at 75 g/ha (Digitaria ciliaris [12]) | inhibition at 1200 g/ha (Digitaria ciliaris [13]) | inhibition at 75 g/ha [14]

CC#CCO[C@@H]1C[C@]2(C(C)C)O[C@@]1(C)C[C@@H]2Cl [1-614, (1R,2S,4S,5R)-5-but-2-ynoxy-2-chloro-1-isopropyl-4-methyl-7-oxabicyclo[2.2.1]heptane]
≥ 80%: inhibition at 1200 g/ha (Echinochloa crus-galli [1]) | inhibition at 1200 g/ha (Digitaria ciliaris [2]) | inhibition at 1200 g/ha (Echinochloa crus-galli [3]) | inhibition at 1200 g/ha [4] | inhibition at 1200 g/ha (Scirpus juncoides [5]) | inhibition at 75 g/ha [6] | pest or weed control at 1200 g/ha [7] | pest or weed control at 1200 g/ha (Scirpus juncoides [8]) | inhibition at 75 g/ha (Echinochloa crus-galli [9]) | inhibition at 75 g/ha (Digitaria ciliaris [10]) | inhibition at 75 g/ha (Echinochloa crus-galli [11]) | inhibition at 75 g/ha (Digitaria ciliaris [12]) | inhibition at 1200 g/ha (Digitaria ciliaris [13]) | inhibition at 75 g/ha [14]

CC(C)[C@]12C[C@@H](OCc3c(Cl)cccc3Cl)[C@](C)(C[C@@H]1Cl)O2 [1-652, (1R,2S,4S,5R)-2-chloro-5-[(2,6-dichlorophenyl)methoxy]-1-isopropyl-4-methyl-7-oxabicyclo[2.2.1]heptane]
≥ 80%: inhibition at 1200 g/ha (Echinochloa crus-galli [1]) | inhibition at 1200 g/ha (Digitaria ciliaris [2]) | inhibition at 1200 g/ha (Echinochloa crus-galli [3]) | inhibition at 1200 g/ha [4] | inhibition at 1200 g/ha (Scirpus juncoides [5]) | inhibition at 75 g/ha [6] | pest or weed control at 1200 g/ha [7] | pest or weed control at 1200 g/ha (Scirpus juncoides [8]) | inhibition at 75 g/ha (Echinochloa crus-galli [9]) | inhibition at 75 g/ha (Digitaria ciliaris [10]) | inhibition at 75 g/ha (Echinochloa crus-galli [11]) | inhibition at 75 g/ha (Digitaria ciliaris [12]) | inhibition at 1200 g/ha (Digitaria ciliaris [13]) | inhibition at 75 g/ha [14]

CC(C)[C@]12C[C@@H](OCc3c(F)cccc3Cl)[C@](C)(C[C@@H]1Cl)O2 [1-653, (1R,2S,4S,5R)-2-chloro-5-[(2-chloro-6-fluoro-phenyl)methoxy]-1-isopropyl-4-methyl-7-oxabicyclo[2.2.1]heptane]
≥ 80%: inhibition at 1200 g/ha (Echinochloa crus-galli [1]) | inhibition at 1200 g/ha (Digitaria ciliaris [2]) | inhibition at 1200 g/ha (Echinochloa crus-galli [3]) | inhibition at 1200 g/ha [4] | inhibition at 1200 g/ha (Scirpus juncoides [5]) | inhibition at 75 g/ha [6] | pest or weed control at 1200 g/ha [7] | pest or weed control at 1200 g/ha (Scirpus juncoides [8]) | inhibition at 75 g/ha (Echinochloa crus-galli [9]) | inhibition at 75 g/ha (Digitaria ciliaris [10]) | inhibition at 75 g/ha (Echinochloa crus-galli [11]) | inhibition at 75 g/ha (Digitaria ciliaris [12]) | inhibition at 1200 g/ha (Digitaria ciliaris [13]) | inhibition at 75 g/ha [14]

CC(C)[C@]12C[C@@H](OCc3ccccn3)[C@](C)(C[C@@H]1Cl)O2 [1-658, 2-[[(1S,2R,4R,5S)-5-chloro-4-isopropyl-1-methyl-7-oxabicyclo[2.2.1]heptan-2-yl]oxymethyl]pyridine]
≥ 80%: inhibition at 1200 g/ha (Echinochloa crus-galli [1]) | inhibition at 1200 g/ha (Digitaria ciliaris [2]) | inhibition at 1200 g/ha (Echinochloa crus-galli [3]) | inhibition at 1200 g/ha [4] | inhibition at 1200 g/ha (Scirpus juncoides [5]) | inhibition at 75 g/ha [6] | pest or weed control at 1200 g/ha [7] | pest or weed control at 1200 g/ha (Scirpus juncoides [8]) | inhibition at 75 g/ha (Echinochloa crus-galli [9]) | inhibition at 75 g/ha (Digitaria ciliaris [10]) | inhibition at 75 g/ha (Echinochloa crus-galli [11]) | inhibition at 75 g/ha (Digitaria ciliaris [12]) | inhibition at 1200 g/ha (Digitaria ciliaris [13]) | inhibition at 75 g/ha [14]
